Source: ChEMBL document CHEMBL3885881, “DrugMatrix”

Organism: Rattus norvegicus
Assay: DrugMatrix - Regimen: Daily Repeat
Format: toxicity, organism-based, Sprague-Dawley
Set-up: regimen Daily Repeat, gender Male, age 6-8 weeks
Settings: in vivo, ip, route intraperitoneal, vehicle 100 % SALINE; for ABSOLUTE BASOPHIL / ABSOLUTE EOSINOPHIL / ABSOLUTE LYMPHOCYTE / ABSOLUTE MONOCYTE / ABSOLUTE SEGMENTED NEUTROPHIL / BASOPHIL / EOSINOPHIL / ERYTHROCYTE COUNT / HEMATOCRIT / HEMOGLOBIN / LEUKOCYTE COUNT / LYMPHOCYTE / MEAN CORPUSCULAR HEMOGLOBIN / MEAN CORPUSCULAR HEMOGLOBIN CONCENTRATION / MEAN CORPUSCULAR VOLUME / MONOCYTE / NEUTROPHIL / PLATELET COUNT: tissue Blood; for ALANINE AMINOTRANSFERASE / ALBUMIN / ALKALINE PHOSPHATASE / ASPARTATE AMINOTRANSFERASE / BLOOD UREA NITROGEN / CHLORIDE / CHOLESTEROL / CREATININE / GLUCOSE / LACTATE DEHYDROGENASE / LIPASE / PHOSPHORUS / POTASSIUM / SODIUM / TOTAL BILIRUBIN / TOTAL PROTEIN / URIC ACID / CREATINE PHOSPHOKINASE: tissue Plasma
[1] = 0 mg/kg, 120 h, dose level Control, time 5 day
[2] = 0 mg/kg, […], dose level Control, time 14 day
[3] = 0 mg/kg, […], dose level Control, time 28 day
[4] = 160 mg/kg, 120 h, dose level High, time 5 day

NCC[C@H](O)C(=O)N[C@@H]1C[C@H](N)[C@@H](O[C@H]2O[C@H](CN)[C@@H](O)[C@H](O)[C@H]2O)[C@H](O)[C@H]1O[C@H]1O[C@H](CO)[C@@H](O)[C@H](N)[C@H]1O [AMIKACIN]
ABSOLUTE BASOPHIL [1]: 32 cells/µL
ABSOLUTE EOSINOPHIL [1]: 110 cells/µL
ABSOLUTE LYMPHOCYTE [1]: 6630 cells/µL
ABSOLUTE MONOCYTE [1]: 140 cells/µL
ABSOLUTE SEGMENTED NEUTROPHIL [1]: 1170 cells/µL
BASOPHIL [1]: 0.38%
EOSINOPHIL [1]: 1.28%
ERYTHROCYTE COUNT [1]: 7.45 x10E6/uL
HEMATOCRIT [1]: 45.74%
HEMOGLOBIN [1]: 14.72 G/DL
LEUKOCYTE COUNT [1]: 8.11 x10E3/uL
LYMPHOCYTE [1]: 81.3%
MEAN CORPUSCULAR HEMOGLOBIN [1]: 19.76 pg
MEAN CORPUSCULAR HEMOGLOBIN CONCENTRATION [1]: 32.16 G/DL
MEAN CORPUSCULAR VOLUME [1]: 61.38 fL
MONOCYTE [1]: 1.76%
NEUTROPHIL [1]: 14.9%
PLATELET COUNT [1]: 1322.4 x10E3/uL
ALANINE AMINOTRANSFERASE [1]: 25.8 u/L
ALBUMIN [1]: 3.64 G/DL
ALKALINE PHOSPHATASE [1]: 233.6 u/L
ASPARTATE AMINOTRANSFERASE [1]: 81.4 u/L
BLOOD UREA NITROGEN [1]: 14.4 mg/dL
CHLORIDE [1]: 105.6 MEQ/L
CHOLESTEROL [1]: 69.2 mg/dL
CREATININE [1]: 0.56 mg/dL
GLUCOSE [1]: 125.4 mg/dL
LACTATE DEHYDROGENASE [1]: 105.4 u/L
LIPASE [1]: 22.4 u/L
PHOSPHORUS [1]: 11.48 mg/dL
POTASSIUM [1]: 5.52 MEQ/L
SODIUM [1]: 147 MEQ/L
TOTAL BILIRUBIN [1]: 0.2 mg/dL
TOTAL PROTEIN [1]: 6.1 G/DL
URIC ACID [1]: 1.06 mg/dL
ABSOLUTE BASOPHIL [2]: 130 cells/µL
ABSOLUTE EOSINOPHIL [2]: 140 cells/µL
ABSOLUTE LYMPHOCYTE [2]: 13500 cells/µL
ABSOLUTE MONOCYTE [2]: 400 cells/µL
ABSOLUTE SEGMENTED NEUTROPHIL [2]: 2330 cells/µL
BASOPHIL [2]: 0.72%
EOSINOPHIL [2]: 0.86%
ERYTHROCYTE COUNT [2]: 7.74 x10E6/uL
HEMATOCRIT [2]: 45.98%
HEMOGLOBIN [2]: 13.86 G/DL
LEUKOCYTE COUNT [2]: 16.61 x10E3/uL
LYMPHOCYTE [2]: 81.34%
MEAN CORPUSCULAR HEMOGLOBIN [2]: 18 pg
MEAN CORPUSCULAR HEMOGLOBIN CONCENTRATION [2]: 30.22 G/DL
MEAN CORPUSCULAR VOLUME [2]: 59.4 fL
MONOCYTE [2]: 2.46%
NEUTROPHIL [2]: 14.14%
PLATELET COUNT [2]: 1445.5 x10E3/uL
ABSOLUTE BASOPHIL [3]: 91 cells/µL
ABSOLUTE EOSINOPHIL [3]: 110 cells/µL
ABSOLUTE LYMPHOCYTE [3]: 9910 cells/µL
ABSOLUTE MONOCYTE [3]: 210 cells/µL
ABSOLUTE SEGMENTED NEUTROPHIL [3]: 1560 cells/µL
BASOPHIL [3]: 0.77%
EOSINOPHIL [3]: 0.92%
ERYTHROCYTE COUNT [3]: 8.21 x10E6/uL
HEMATOCRIT [3]: 47.53%
HEMOGLOBIN [3]: 15.65 G/DL
LEUKOCYTE COUNT [3]: 11.91 x10E3/uL
LYMPHOCYTE [3]: 83.34%
MEAN CORPUSCULAR HEMOGLOBIN [3]: 19.07 pg
MEAN CORPUSCULAR HEMOGLOBIN CONCENTRATION [3]: 32.93 G/DL
MEAN CORPUSCULAR VOLUME [3]: 57.9 fL
MONOCYTE [3]: 1.68%
NEUTROPHIL [3]: 12.97%
PLATELET COUNT [3]: 1323.8 x10E3/uL
ALANINE AMINOTRANSFERASE [2]: 31.6 u/L
ALBUMIN [2]: 3.66 G/DL
ALKALINE PHOSPHATASE [2]: 228.6 u/L
ASPARTATE AMINOTRANSFERASE [2]: 79.6 u/L
BLOOD UREA NITROGEN [2]: 11.2 mg/dL
CHLORIDE [2]: 107 MEQ/L
CHOLESTEROL [2]: 57 mg/dL
CREATINE PHOSPHOKINASE [2]: 233.6 u/L
CREATININE [2]: 0.5 mg/dL
GLUCOSE [2]: 124.4 mg/dL
LACTATE DEHYDROGENASE [2]: 106.4 u/L
LIPASE [2]: 24.4 u/L
PHOSPHORUS [2]: 10.52 mg/dL
POTASSIUM [2]: 6.34 MEQ/L
SODIUM [2]: 149.2 MEQ/L
TOTAL BILIRUBIN [2]: 0.2 mg/dL
TOTAL PROTEIN [2]: 6.48 G/DL
URIC ACID [2]: 0.94 mg/dL
ALANINE AMINOTRANSFERASE [3]: 30 u/L
ALBUMIN [3]: 3.71 G/DL
ALKALINE PHOSPHATASE [3]: 186.8 u/L
ASPARTATE AMINOTRANSFERASE [3]: 78.2 u/L
BLOOD UREA NITROGEN [3]: 14.2 mg/dL
CHLORIDE [3]: 105.4 MEQ/L
CHOLESTEROL [3]: 44.9 mg/dL
CREATINE PHOSPHOKINASE [3]: 334.3 u/L
CREATININE [3]: 0.6 mg/dL
GLUCOSE [3]: 147.2 mg/dL
LACTATE DEHYDROGENASE [3]: 123.1 u/L
LIPASE [3]: 9.6 u/L
PHOSPHORUS [3]: 10.01 mg/dL
POTASSIUM [3]: 6.57 MEQ/L
SODIUM [3]: 149.5 MEQ/L
TOTAL BILIRUBIN [3]: 0.21 mg/dL
TOTAL PROTEIN [3]: 6.66 G/DL
URIC ACID [3]: 1.26 mg/dL
ABSOLUTE BASOPHIL [4]: 42 cells/µL
ABSOLUTE EOSINOPHIL [4]: 76 cells/µL
ABSOLUTE LYMPHOCYTE [4]: 7260 cells/µL
